Experimental data published in the supplement of paper PMC11061612.

Columns and labels:
Assay in all cases: Bliss excess, mean over the matrix (fraction); higher = more synergy
[1] = test system: NCI-H2347 (Lung Adenocarcinoma)
Procedure, shortened: (§1)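 Cell lines grown in DMEM/F12 or RPMI with 10% FBS were plated in 1536-well plates and held 24 hours at 37°C, 5% CO2 before 72 hours of exposure to two-drug dose matrices, with DMSO typically at 0.2%. CellTiter-Glo 2.0 luminescence gave viability, which was converted to inhibition. Vehicle wells were set to 0 and blank wells to 1. Combination Emax is the second-highest inhibition in the matrix, and Bliss excess is the observed combination effect minus the expected EA + EB − EA·EB, where EA and EB are the single-agent effects.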

U-87-MG (Glioblastoma) = test system: U-87-MG (Glioblastoma)
Procedure, shortened: as §1

[2] = test system: MFE-319 (Endometrial Carcinoma)
Procedure, shortened: as §1

[3] = test system: HSC-2 (Oral Cavity Carcinoma)
Procedure, shortened: as §1

[4] = test system: NCI-N87 (Gastric Carcinoma)
Procedure, shortened: as §1

[5] = test system: HuP-T3 (Pancreatic Carcinoma)
Procedure, shortened: as §1

EW-18 (Ewing's Sarcoma) = test system: EW-18 (Ewing's Sarcoma)
Procedure, shortened: as §1

[6] = test system: KINGS-1 (Low Grade Glioma)
Procedure, shortened: as §1

RPMI-7951 (Melanoma) = test system: RPMI-7951 (Melanoma)
Procedure, shortened: as §1

[7] = test system: SNU-C1 (Colorectal Carcinoma)
Procedure, shortened: as §1

[8] = test system: OCUM-1 (Gastric Carcinoma)
Procedure, shortened: as §1

[9] = test system: BV-173 (Chronic Myelogenous Leukemia)
Procedure, shortened: as §1

[10] = test system: NCI-H322M (Lung Adenocarcinoma)
Procedure, shortened: as §1

[11] = test system: KYSE-150 (Esophageal Squamous Cell Carcinoma)
Procedure, shortened: as §1

[12] = test system: TGBC11TKB (Gastric Carcinoma)
Procedure, shortened: as §1

NB7 (Neuroblastoma) = test system: NB7 (Neuroblastoma)
Procedure, shortened: as §1

GI-1 (Glioblastoma) = test system: GI-1 (Glioblastoma)
Procedure, shortened: as §1

[13] = test system: JHH-7 (Hepatocellular Carcinoma)
Procedure, shortened: as §1

[14] = test system: NCI-H513 (Other Solid Carcinomas)
Procedure, shortened: as §1

[15] = test system: KLE (Endometrial Carcinoma)
Procedure, shortened: as §1

Structure (SMILES) | Bliss excess [1] | Bliss excess (U-87-MG (Glioblastoma)) | Bliss excess [2] | Bliss excess [3] | Bliss excess [4] | Bliss excess [5] | Bliss excess (EW-18 (Ewing's Sarcoma)) | Bliss excess [6] | Bliss excess (RPMI-7951 (Melanoma)) | Bliss excess [7] | Bliss excess [8] | Bliss excess [9] | Bliss excess [10] | Bliss excess [11] | Bliss excess [12] | Bliss excess (NB7 (Neuroblastoma)) | Bliss excess (GI-1 (Glioblastoma)) | Bliss excess [13] | Bliss excess [14] | Bliss excess [15]
CN(CCO)CC[C@H](CSc1ccccc1)Nc1ccc(S(=O)(=O)NC(=O)c2ccc(N3CCC([C@@H](O)c4ccccc4-c4ccc(Cl)cc4)CC3)cc2)cc1S(=O)(=O)C(F)(F)F [AZD4320] + Cc1cc2ncnn2cc1Nc1ncc2c(n1)n(C1CCOCC1)c(=O)n2C [AZD7648] (first compound max 1 µM, 7x7, partner max 10 µM) | -0.0312 | -0.0503 | -0.0557 | 0.0257 | -0.0695 | -0.0362 | -0.0372 | -0.0152 | -0.0109 | -0.0376 | -0.0462 | -0.0643 | -0.0426 | -0.0396 | 0.0075 | -0.0286 | 0.0161 | -0.0253 | -0.0438 | -0.0116
CN(CCO)CC[C@H](CSc1ccccc1)Nc1ccc(S(=O)(=O)NC(=O)c2ccc(N3CCC([C@@H](O)c4ccccc4-c4ccc(Cl)cc4)CC3)cc2)cc1S(=O)(=O)C(F)(F)F [AZD4320] + C=CCn1c(=O)c2cnc(Nc3ccc(N4CCN(C)CC4)cc3)nc2n1-c1cccc(C(C)(C)O)n1 [AZD1775] (first compound max 1 µM, partner max 1 µM) | 0.034 | -0.0637 | 0.0537 | 0.058 | 0.0086 | -0.0081 | 0.0349 | 0.0509 | -0.0023 | -0.0588 | 0.03 | -0.0038 | -0.0521 | -0.0634 | 0.0443 | 0.0051 | 0.0542 | 0.0362 | 0.0699 | 0.0083
COc1nnc2ccc(N3CCC(c4ccc(OCCN5CCN(C)C(=O)[C@H]5C)cc4)CC3)nn12 [AZD5153] + C=CCn1c(=O)c2cnc(Nc3ccc(N4CCN(C)CC4)cc3)nc2n1-c1cccc(C(C)(C)O)n1 [AZD1775] (first compound max 1 µM, partner max 1 µM) | 0.0293 | -0.119 | -0.13 | -0.0167 | -0.0415 | -0.0521 | -0.0163 | -0.0123 | -0.0223 | -0.0563 | -0.0217 | -0.0256 | -0.106 | -0.049 | -0.0699 | -0.0352 | -0.0143 | -0.0749 | -0.0857 | -0.0754
CC1(C)CCC(CN2CCN(c3ccc(C(=O)NS(=O)(=O)c4ccc(NCC5CCOCC5)c([N+](=O)[O-])c4)c(Oc4cnc5[nH]ccc5c4)c3)CC2)=C(c2ccc(Cl)cc2)C1 [Venetoclax] + COc1cc(Nc2ncc3c(n2)-c2ccc(Cl)cc2C(c2c(F)cccc2OC)=NC3)ccc1C(=O)O [Alisertib] (first compound max 1 µM, 7x7, partner max 10 µM) | -0.0487 | -0.087 | -0.0256 | 0.0857 | -0.0675 | -0.0527 | 0.0421 | -0.0049 | 0.0107 | -0.0323 | 0.0489 | -0.018 | -0.0612 | -0.0364 | 0.0709 | -0.0193 | 0.0787 | -0.0134 | -0.0137 | -0.0709
CC1(C)CCC(CN2CCN(c3ccc(C(=O)NS(=O)(=O)c4ccc(NCC5CCOCC5)c([N+](=O)[O-])c4)c(Oc4cnc5[nH]ccc5c4)c3)CC2)=C(c2ccc(Cl)cc2)C1 [Venetoclax] + C[C@@H](Nc1cc(F)cc(F)c1)c1cc(C(=O)N(C)C)cc2c(=O)cc(N3CCOCC3)oc12 [AZD8186] (first compound max 1 µM, 7x7, partner max 3 µM) | -0.0045 | -0.117 | -0.0419 | -0.0482 | -0.111 | -0.0275 | 0.0781 | 0.0081 | -0.0344 | -0.0749 | -0.0263 | -0.0477 | -0.0526 | -0.0281 | -0.0067 | -0.0235 | -0.0091 | -0.0516 | -0.0586 | 0.0002
CS(=O)(=O)CCNCc1ccc(-c2ccc3ncnc(Nc4ccc(OCc5cccc(F)c5)c(Cl)c4)c3c2)o1 [Lapatinib] + C[C@@H](Oc1cc(-c2cnn(C3CCNCC3)c2)cnc1N)c1c(Cl)ccc(F)c1Cl [Crizotinib] (first compound max 10 µM, 7x7, partner max 10 µM) | -0.0421 | -0.0302 | -0.0205 | 0.0028 | -0.0456 | -0.0563 | -0.0533 | 0.0032 | -0.0655 | -0.0359 | -0.0252 | -0.037 | 0.0188 | -0.0355 | -0.027 | -0.0172 | -0.0444 | -0.0055 | -0.0342 | -0.0215
COc1cccc(OCCCN)c1-c1cc(Nc2cnc(C#N)cn2)n[nH]1 [Prexasertib] + CCc1c2c(nc3ccc(O)cc13)-c1cc3c(c(=O)n1C2)COC(=O)[C@]3(O)CC [SN-38] (first compound max 1 µM, 7x7, partner max 0.3 µM) | 0.0217 | -0.092 | 0.0161 | -0.0507 | -0.0787 | 0.0335 | -0.0728 | 0.0121 | -0.0265 | -0.0179 | -0.101 | -0.0594 | -0.0161 | 0.135 | 0.0252 | 0.0222 | 0.0188 | 0.116 | -0.0068 | 0.0285
Cc1c2c(nn1C)CSCc1cc(n(C)n1)CSc1cc(c3ccccc3c1)OCCCc1c(C(=O)O)n(C)c3c-2c(Cl)ccc13 [AZD5991] + Cn1cnc2c(F)c(Nc3ccc(Br)cc3Cl)c(C(=O)NOCCO)cc21 [Selumetinib] (first compound max 1 µM, 7x7, partner max 3 µM) | -0.0006 | -0.0073 | -0.0233 | -0.0024 | 0.0633 | 0.032 | 0.002 | -0.0147 | -0.0072 | 0.0034 | -0.0034 | 0.0265 | 0.0308 | 0.0402 | 0.0592 | -0.0259 | -0.0491 | -0.0649 | -0.0255 | -0.0374
CC(=O)c1c(C)c2cnc(Nc3ccc(N4CCNCC4)cn3)nc2n(C2CCCC2)c1=O [Palbociclib] + Cn1cnc2c(F)c(Nc3ccc(Br)cc3Cl)c(C(=O)NOCCO)cc21 [Selumetinib] (first compound max 10 µM, 7x7, partner max 10 µM) | -0.0362 | -0.0929 | 0.0042 | 0.0254 | 0.0117 | -0.014 | -0.0542 | -0.0272 | 0.0492 | 0.0288 | -0.0321 | -0.0657 | 0.0515 | 0.127 | 0.0327 | 0.0136 | -0.0734 | -0.0039 | -0.035 | 0.0167
C[C@@H](c1ccc2nccn2c1)n1nnc2ncc(-c3cnn(C)c3)nc21 [Savolitinib] + CC1(C)CCC(CN2CCN(c3ccc(C(=O)NS(=O)(=O)c4ccc(NCC5CCOCC5)c([N+](=O)[O-])c4)c(Oc4cnc5[nH]ccc5c4)c3)CC2)=C(c2ccc(Cl)cc2)C1 [Venetoclax] (first compound max 1 µM, 7x7, partner max 1 µM) | -0.0848 | -0.0699 | -0.0764 | 0.0064 | -0.0341 | -0.0912 | -0.067 | -0.0566 | -0.0432 | -0.0363 | -0.0368 | 0.0064 | -0.0536 | -0.0686 | -0.0367 | -0.0221 | 0.0079 | -0.0342 | -0.0719 | -0.111
Cc1c2c(nn1C)CSCc1cc(n(C)n1)CSc1cc(c3ccccc3c1)OCCCc1c(C(=O)O)n(C)c3c-2c(Cl)ccc13 [AZD5991] + CN(C)CCCOc1ccc(-c2ccc3ncc4c(c3c2)n(C2CCOCC2)c(=O)n4C)cn1 [AZD0156] (first compound max 1 µM, 7x7, partner max 1 µM) | -0.0188 | -0.0477 | 0.0347 | -0.0089 | 0.0027 | -0.0479 | -0.0213 | 0.0128 | -0.0382 | -0.0652 | -0.016 | -0.114 | -0.0017 | -0.0143 | 0.007 | -0.0178 | 0.0067 | -0.0091 | -0.004 | -0.0504
CC(=O)Nc1cccc(-n2c(=O)n(C3CC3)c(=O)c3c(Nc4ccc(I)cc4F)n(C)c(=O)c(C)c32)c1 [Trametinib] + Cc1nc(-c2cn3c(n2)-c2ccc(-c4cnn(C(C)(C)C(N)=O)c4)cc2OCC3)n(C(C)C)n1 [Taselisib] (first compound max 1 µM, 7x7, partner max 10 µM) | 0.135 | 0.0848 | 0.0681 | 0.137 | 0.067 | 0.118 | 0.0163 | 0.151 | 0.0161 | -0.0022 | 0.06 | 0.0965 | 0.0404 | 0.123 | 0.329 | -0.0716 | 0.0885 | 0.0427 | 0.0563 | -0.0509
CC1(C)CCC(CN2CCN(c3ccc(C(=O)NS(=O)(=O)c4ccc(NCC5CCOCC5)c([N+](=O)[O-])c4)c(Oc4cnc5[nH]ccc5c4)c3)CC2)=C(c2ccc(Cl)cc2)C1 [Venetoclax] + Cn1cnc2c(F)c(Nc3ccc(Br)cc3Cl)c(C(=O)NOCCO)cc21 [Selumetinib] (first compound max 1 µM, 7x7, partner max 3 µM) | -0.012 | -0.0889 | -0.0034 | -0.0511 | -0.065 | -0.0403 | -0.104 | -0.0469 | -0.049 | -0.053 | -0.0508 | -0.0183 | -0.0124 | -0.0102 | 0.0049 | -0.0252 | -0.0095 | -0.0442 | -0.0415 | -0.0704
CC(=O)c1c(C)c2cnc(Nc3ccc(N4CCNCC4)cn3)nc2n(C2CCCC2)c1=O [Palbociclib] + CC1(C)CCC(CN2CCN(c3ccc(C(=O)NS(=O)(=O)c4ccc(NCC5CCOCC5)c([N+](=O)[O-])c4)c(Oc4cnc5[nH]ccc5c4)c3)CC2)=C(c2ccc(Cl)cc2)C1 [Venetoclax] (first compound max 10 µM, 7x7, partner max 1 µM) | -0.0375 | -0.054 | -0.0586 | -0.0128 | -0.0275 | -0.021 | 0.0221 | 0.0075 | 0.0005 | -0.093 | -0.0515 | 0.0021 | -0.0288 | -0.0225 | -0.0901 | -0.102 | -0.0394 | -0.0474 | -0.0574 | -0.0355
